Entries after “also recorded” stand apart in the source; their conditions may differ.

Test [1] deals with purified, human Bcl2 protein (Homo sapiens, UniProt P10415). Kind of test: in vitro cell-free Bcl2 conformational change assay (IP with anti-Bcl2/BH3 domain antibody). The class given is biochemical. As for the experimental part:
To test whether BDA-2 directly induces Bcl2 conformational change, an in vitro cell-free assay was employed. Purified recombinant Bcl2 protein was incubated with increasing concentrations of BDA-2 in lysis buffer, followed by immunoprecipitation (IP) using the anti-Bcl2/BH3 domain antibody.

The next test deals with Plasmid pUC19 DNA. In words: electrophoretic mobility shift assay (EMSA). The class given is binding. As for the experimental part:
To test whether BDA-2 reacts with DNA as a crosslinker, electrophoretic mobility shift assay (EMSA) was performed. Cisplatin, a known DNA binding agent, was used as positive control. Plasmid pUC19 DNA was incubated with BDA-2 or cisplatin.
For orientation: A gel shift assay detects complexes by their altered migration in electrophoresis.

Another test deals with purified recombinant Bax. Kind of test: cell-free Bax activation (IP using 6A7 Bax antibody). The class given is biochemical. To be noted: without Bcl2. As for the experimental part:
BDA-366-induced Bcl2 conformational change was also confirmed by immunofluorescence using a Bcl2/BH3-domain specific antibody. […] To test this possibility, a 6A7 Bax antibody that only recognizes the conformationally changed, active, form of Bax was employed. Purified Bcl2 was treated with BDA-366 in lysis buffer for 1 h. The mixture of Bcl2/BDA-2 was then incubated with purified recombinant Bax for another 2 h, followed by IP using 6A7 antibody.
To further test whether the BH3 domain of Bcl2 is important for BDA-366 activation of Bax, purified recombinant WT and the BH3 deletion (ΔBH3) mutant Bcl2 proteins were incubated with purified Bax protein in the absence or presence of BDA-366, followed by IP with 6A7 antibody. […] To test this at the cellular or mitochondrial level, WT, ΔBH3 Bcl2 mutant and empty vector (pCIneo) were transfected into H1299 cells that express undetectable levels of endogenous Bcl2 but high levels of endogenous Bax. Cells or isolated mitochondria from these cells were treated with BDA-2, followed by IP with Bcl2 BH3 or 6A7 antibody, respectively.

Test [2] deals with H460 or DMS53 cells expressing Bcl2 shRNA transfected with WT Bcl2. In words: rescue of Bcl2-silenced cells with exogenous WT Bcl2. The class given is cell-based. To be noted: 72 h. From the text: (§1) Whether expression of exogenous Bcl2 can restore the sensitivity of Bcl2-silenced lung cancer cells to BDA-2 and whether the BDA-2/BH4 binding is important for such effect was examined. WT and BDA-2 binding deficient D10A/N11A/R12A/E13A (AAAA) Bcl2 mutant cDNA in pCIneo or vector-only control were transfected into H460 or DMS53 cells expressing Bcl2 shRNA. It has been reported that if the shRNA is directed to the 3′ UTR or 5′ UTR of the gene, the effect of the shRNA1 can be rescued by ectopically expressing the protein using the wild-type or mutant cDNA. Because Bcl2 shRNA1 targets the 5′UTR of endogenous Bcl2, the silencing effect of shRNA1 on Bcl2 expression could be rescued by transfection of exogenous WT or AAAA Bcl2 mutant. After transfection, cells were treated with BDA-2 or the BH3 mimetic ABT-199 at the indicated concentrations for 72 h. […] The apoptotic effect of BDA-2 on lung cancer cells requires its BH4 binding.

Test [3] concerns H460 or DMS53 cells expressing Bcl2 shRNA transfected with AAAA Bcl2 mutant. Kind of test: rescue of Bcl2-silenced cells with AAAA Bcl2 mutant. The note with it: 72 h. The class given is cell-based.
From the text: as §1

Test [4] has as its system Bcl2 in tumor tissues of NSCLC patients. In words: Bcl2 expression by IHC in tumor tissue of treated NSCLC patients. The class given is in vivo, human. To be noted: 5 or 10 mg/day for 28 days, 10 NSCLC patients. As for the experimental part: To test whether a similar effect of RAD001 on Bcl2 expression occurs in patients Bcl2 expression was analyzed by IHC in baseline and post-treatment tissue samples obtained from 10 NSCLC patients treated with RAD001 (5 or 10 mg/day) for 28 days as part of a neoadjuvant clinical study of everolimus in patients with resectable NSCLC. […] Thus, inhibition of Bcl2 may enhance the potency of mTOR inhibitor against lung cancer.

For test [5], the system named is H460 cells. In words: SRB cell growth assay, combination with mTOR inhibitor. The class given is cell-based, human. To be noted: BDA-366 100 nM, RAD001 1 nM, alone or in combination, 72 hr. The protocol: Cell growth was analyzed by sulforhodamine B (SRB) colorimetric assay.
A further test has as its system A549 cells. Kind of test: Bcl2 expression after mTOR inhibition (Western blot). The class given is cell-based. The note with it: increasing concentrations, 24 hr. As for the experimental part:
(§2) A549 or H460 cells were treated with increasing concentrations of RAD001 for 24 h. Bcl2 and p-P70S6K were analyzed by Western blot.
(§3) Rapamycin and its derivative RAD001 (i.e. everolimus) are potent allosteric inhibitors of mTOR. […] Previous reports indicate that expression of Bcl2 is associated with resistance of cancer cells to mTOR inhibitors. To further test whether mTOR inhibition regulates Bcl2 expression, A549 and H460 cells were treated with increasing concentrations of RAD001 for 24 hr.
A general note: In western blotting, separated proteins are transferred to a membrane and probed.

In test [6] the test system is H460 cells. Described as above. The note with it: increasing concentrations, 24 hr. The class given is cell-based. As for the experimental part: as §2, §3

Chain of purified, human Bcl2 protein (P10415 whole entry, the tested form may be a part): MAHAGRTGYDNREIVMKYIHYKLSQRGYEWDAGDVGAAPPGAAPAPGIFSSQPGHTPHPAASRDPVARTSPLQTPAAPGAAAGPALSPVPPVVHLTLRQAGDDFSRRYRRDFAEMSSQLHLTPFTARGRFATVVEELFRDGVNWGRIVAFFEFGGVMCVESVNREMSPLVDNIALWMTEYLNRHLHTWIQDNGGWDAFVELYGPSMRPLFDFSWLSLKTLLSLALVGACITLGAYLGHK

Regarding `N.N.[Cl][Pt][Cl]` [cisplatin, reference compound], in [1], the “direct induction of Bcl2 conformational change (BH3 exposure)” value was “not”. For the same compound, the “binding to pUC19 DNA causing mobility shift” value with Plasmid pUC19 DNA is given as “can bind to pUC19 DNA to cause mobility shift”.
On to BAM7 [reference compound], for which the “direct activation of Bax” value in the test with purified recombinant Bax was “can directly activate Bax”.
Regarding `CC1(C)CCC(CN2CCN(c3ccc(C(=O)NS(=O)(=O)c4ccc(NCC5CCOCC5)c([N+](=O)[O-])c4)c(Oc4cnc5[nH]ccc5c4)c3)CC2)=C(c2ccc(Cl)cc2)C1` [ABT-199, reference compound], the “sensitivity of cells after expression of exogenous WT Bcl2” value in test [2] was “restored sensitivity”. The “sensitivity of cells restored after expression of AAAA Bcl2” value in test [3] was “restored the sensitivity”.
For the compound `C#Cc1cccc(Nc2ncnc3cc(OCCOC)c(OCCOC)cc23)c1` [erlotinib, N-(3-ethynylphenyl)-6,7-bis(2-methoxyethoxy)quinazolin-4-amine], the Bcl-2/Bcl-XL expression entry with lung cancer cells is given as “up-regulation of Bcl-2/Bcl-XL”.
As to `COc1cc([C@@H]2c3cc4c(cc3[C@@H](O[C@@H]3O[C@@H]5CO[C@@H](C)O[C@H]5[C@H](O)[C@H]3O)[C@H]3COC(=O)[C@H]23)OCO4)cc(OC)c1O` [VP-16], the “direct induction of Bcl2 conformational change (BH3 exposure)” value in test [1] is “not”.
In the case of `CO[C@H]1C[C@@H]2CC[C@@H](C)[C@@](O)(O2)C(=O)C(=O)N2CCCC[C@H]2C(=O)O[C@H]([C@H](C)C[C@@H]2CC[C@@H](OCCO)[C@H](OC)C2)CC(=O)[C@H](C)/C=C(\C)[C@@H](O)[C@@H](OC)C(=O)[C@H](C)C[C@H](C)/C=C/C=C/C=C/1C` [RAD001], in test [4], the “Bcl2 expression in post-treatment tumor tissues compared to baseline” value is listed as “increased expression of Bcl2”. Also, the cell growth inhibition result in the test with H460 cells [5] is recorded as “partially inhibited lung cancer cell growth”. The Bcl2 expression result in the test on A549 cells and in the test with H460 cells [6] was “up-regulation of Bcl2 in a dose-dependent manner; also recorded: up-regulates Bcl2” each time.

For the origin of these results see US9980936B2, “BH4 antagonists and methods related thereto” (Emory University, priority 2014, dated 2018).
